{"source": "patent US8642759B2", "about": "“Benzene sulfonamide thiazole and oxazole compounds” (GlaxoSmithKline LLC, priority 2008, dated 2014)", "key": {"[1]": {"test_system": "cancer cell lines encoding B-Raf V600E mutation", "assay": "3 day proliferation assay, panel of 22 cancer cell lines encoding B-Raf V600E", "assay_type": "cell-based", "settings": "count of cell lines of the panel of 22"}, "[2]": {"test_system": "A375P F11s", "assay": "Dose dependent tumor inhibition, A375P F11s subcutaneous xenograft", "assay_type": "in vivo, athymic mice", "set-up": "key: −: indicates no response; +: indicates growth delay (1-2× doubling); ++: indicates growth delay (>2× doubling); +++: indicates stable disease; ++++: indicates partial regression; +++++: indicates complete regression", "settings": "oral, 14-day period", "method": "A375P F11s were cultured in RPMI 1640 medium supplemented with 10% fetal bovine serum, 1% Penicillin-streptomycin and 1% sodium pyruvate. Tumor cells (2×10^6 A375P F11s) were implanted subcutaneously into the right flank of athymic mice on Day 1. To facilitate their growth, A375P F11s cells were suspended in Matrigel diluted 1:1 in phosphate-buffered saline before implantation. When tumors had reached approximately 200 mm^3 in volume (Day 19-22), tumor-bearing mice were randomized into study groups (n=7 or 8). Animals were dosed orally once or twice daily for a 14-day period. […] Tumor growth was measured twice a week using calipers for the duration of the study. Tumor volumes were calculated as a product of (length×width×width)/2 and median values were used to compare groups. Complete regressions (CR) were defined as three consecutive tumor measurements of ≦13.5 mm^3. Partial regressions were defined as three consecutive measurements of ≦50% of starting tumor volume. Tumor growth delay was defined as the difference in time taken for treated and control groups to reach 1000 mm^3 (T-C1000)."}, "[3]": {"biological_target": "T1, His6-tagged BRAFV600E full-length (amino acids 2-766) (Homo sapiens, UniProt P15056, V600E)", "T1 construct": "BRAFV600E full-length (amino acids 2-766); His6; made in house", "T1 sequence (P15056 2-766 V600E)": "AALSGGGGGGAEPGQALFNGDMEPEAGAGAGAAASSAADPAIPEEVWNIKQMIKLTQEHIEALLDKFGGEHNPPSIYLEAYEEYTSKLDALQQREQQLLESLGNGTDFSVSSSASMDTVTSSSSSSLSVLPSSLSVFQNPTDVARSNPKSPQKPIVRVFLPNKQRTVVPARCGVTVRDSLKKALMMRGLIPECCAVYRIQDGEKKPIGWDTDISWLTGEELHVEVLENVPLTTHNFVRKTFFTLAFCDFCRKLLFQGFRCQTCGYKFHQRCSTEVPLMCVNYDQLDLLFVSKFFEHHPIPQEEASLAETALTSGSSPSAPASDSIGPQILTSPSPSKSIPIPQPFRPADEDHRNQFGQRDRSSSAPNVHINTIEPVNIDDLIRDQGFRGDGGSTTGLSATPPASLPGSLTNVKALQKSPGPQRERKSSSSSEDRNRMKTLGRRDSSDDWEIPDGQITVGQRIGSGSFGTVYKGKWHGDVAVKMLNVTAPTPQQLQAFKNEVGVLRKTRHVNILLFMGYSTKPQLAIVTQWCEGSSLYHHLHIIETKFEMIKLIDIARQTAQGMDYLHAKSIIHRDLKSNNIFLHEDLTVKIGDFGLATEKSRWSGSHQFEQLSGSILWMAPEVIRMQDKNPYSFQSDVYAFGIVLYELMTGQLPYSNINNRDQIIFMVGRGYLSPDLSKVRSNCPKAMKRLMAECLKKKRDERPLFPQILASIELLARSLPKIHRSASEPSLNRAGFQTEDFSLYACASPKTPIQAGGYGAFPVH", "assay": "biochemical", "assay_type": "biochemical", "method": "Compounds of the present invention were tested for B-Raf protein serine kinase inhibitory activity in a B-Raf Accelerated MEK ATPase assay (BRAMA). […] The BRAMA assay is a high sensitivity assay which measures an intrinsic MEK-mediated ATP hydrolysis uncoupled from downstream ERK phosphorylation by coupling the formation of ADP to NADH oxidation through the enzymes pyruvate kinase and lactate dehydrogenase. When ADP production is initiated by addition of catalytic amounts of an activated Raf enzyme and non-phosphorylated MEK, one observes robust ADP production concomitant with Raf-mediated phosphorylation of MEK. The method is disclosed in: C. Rominger, M. Schaber, E. May. Assay for B-Raf Activity Based on Intrinsic MEK ATPase Activity."}, "[4]": {"test_system": "Human colon tumor cells (Colo205)", "assay": "Cell growth inhibition assay (CellTiter-Glo), Colo205", "assay_type": "cell-based", "settings": "COLO 205, 72 h, 3 days incubation", "method": "Human colon tumor cells (Colo205) were cultured in RPMI (Mediatech 50-020-PB) containing 10% FBS and 1% penicillin-streptomycin.\nThe next day, compounds were diluted as follow: For 96-well assays, 13.5 μL of compound in DMSO were diluted using nine (9) serial 1:3 dilutions of 4.5 μL in 9 μL of DMSO. Medium (270 μL/well of RPMI with 10% FBS and 1% penicillin-streptomycin) was added to the plates. Aliquots (7 μL) were added to cells in the final assay giving a final DMSO concentration of 0.2%. For 384-well assays, 15 μL of compound in DMSO were diluted using nine (9) serial 1:3 dilutions of 5 μL in 10 μL of DMSO, followed by a further dilution of 5 μL of compound with 95 μL of medium, of which 2 μL were added to cells in the final assay giving a final DMSO concentration of 0.2%. Cells were incubated at 37° C., 5% CO2 for 3 days.\nTotal ATP was measured (as a surrogate estimate of cell number) using CellTiter-Glo® reagent (Promega G7571). Briefly, plates were removed from the incubator and allowed to equilibrate to room temperature for 30 minutes. CellTiter-Glo® (25 μL or 55 μL for 384-well or 96-well assays, respectively) reagent was added to each well and plates were shaken on an orbital plate shaker for 2 minutes. Plates were incubated without shaking for a further 30 minutes and read on an LJL Analyst GT reader in luminometer mode with an integration time of 0.5 seconds per well. Percent inhibition of cell growth was calculated relative to DMSO vehicle-treated control wells."}, "[5]": {"test_system": "Human melanoma cancer cells (SK-MEL-28)", "assay": "Cell growth inhibition assay (CellTiter-Glo), SK-MEL-28", "assay_type": "cell-based", "settings": "SK-MEL-28, 72 h, 3 days incubation"}, "[6]": {"settings": "Table 1a, highest pIC50 for the one or more runs"}, "[7]": {"settings": "Table 1a, highest pIC50 for the one or more runs, read-out: B-Raf Activity"}, "[8]": {"settings": "Table 1b (later runs), average pIC50 for the one or more runs, read-out: B-Raf plC50"}, "[9]": {"settings": "Table 2a, read-out: Activity in Colo205 Tumor Cells"}, "[10]": {"settings": "Table 2b (later runs), average for the one or more runs, read-out: IC50 for Colo205"}, "[11]": {"settings": "Table 3a, read-out: Activity in SK-MEL-28 Tumor Cells"}, "[12]": {"settings": "Table 3b (later runs), average for the one or more runs, read-out: IC50 for SK-MEL-28"}}, "note": "Read-outs that look alike come from different tables or passages of the source.", "data": [{"smiles": "CC(C)(C)c1nc(-c2cccc(NS(=O)(=O)c3c(F)cccc3F)c2F)c(-c2ccnc(N)n2)s1", "note": "[Example 58a, N-{3-[5-(2-Amino-4-pyrimidinyl)-2-(1,1-dimethylethyl)-1,3-thiazol-4-yl]-2-fluorophenyl}-2,6-difluorobenzenesulfonamide]", "values": [{"measurement": "cancer cell lines encoding B-Raf V600E not sensitive (gIC50>1000M)", "setting": "[1]", "value": "4 out of 22"}, {"measurement": "cancer cell lines encoding B-Raf V600E with intermediate response (gIC50≧100 nM and <1000 nM)", "setting": "[1]", "value": "2 out of 22"}, {"measurement": "Response", "setting": "[2]; 1 mg/kg qd", "value": "+"}, {"measurement": "Response", "setting": "[2]; 10 mg/kg qd", "value": "++ (+)"}, {"measurement": "Response", "setting": "[2]; 100 mg/kg bid", "value": "++++ (+)"}, {"measurement": "Response", "setting": "[2]; 100 mg/kg qd", "value": "++++ (+)"}, {"measurement": "Response", "setting": "[2]; 300 mg/kg bid", "value": "++++ (+)"}, {"measurement": "Response", "setting": "[2]; 300 mg/kg qd", "value": "++++ (+)"}]}, {"smiles": "CC(C)c1nc(-c2ccc(F)c(NS(=O)(=O)c3c(F)cccc3F)c2)c(-c2ccnc(NCCN3CCOCC3)n2)s1", "note": "[Example 165]", "values": [{"measurement": "B-Raf Activity", "setting": "[3]; [6]", "value": "++ (indicates at least one pIC50 measurement greater than 6 against B-Raf but no measurement greater than pIC50 of 7)"}]}, {"smiles": "CC(C)c1nc(-c2ccc(F)c(NS(=O)(=O)c3c(F)cccc3F)c2)c(-c2ccnc(NCCOCCO)n2)s1", "note": "[Example 166]", "values": [{"measurement": "B-Raf Activity", "setting": "[3]; [6]", "value": "++ (indicates at least one pIC50 measurement greater than 6 against B-Raf but no measurement greater than pIC50 of 7)"}]}, {"smiles": "CC(C)c1nc(-c2ccc(F)c(NS(=O)(=O)c3c(F)cccc3F)c2)c(-c2ccnc(NCCCCN(C)C)n2)s1", "note": "[Example 167]", "values": [{"measurement": "B-Raf Activity", "setting": "[3]; [6]", "value": "++ (indicates at least one pIC50 measurement greater than 6 against B-Raf but no measurement greater than pIC50 of 7)"}]}, {"smiles": "COCCCNc1nccc(-c2sc(C(C)C)nc2-c2ccc(F)c(NS(=O)(=O)c3c(F)cccc3F)c2)n1", "note": "[Example 168]", "values": [{"measurement": "B-Raf Activity", "setting": "[3]; [6]", "value": "++ (indicates at least one pIC50 measurement greater than 6 against B-Raf but no measurement greater than pIC50 of 7)"}]}, {"smiles": "CC(C)c1nc(-c2cccc(NS(=O)(=O)c3cc(F)ccc3F)c2F)c(-c2ccnc(NCCCNS(C)(=O)=O)n2)s1", "note": "[Example 195]", "values": [{"measurement": "IC50", "setting": "[3]; [7]", "value": "< 100", "unit": "nM"}, {"measurement": "IC50", "setting": "[3]; [8]", "value": "≤ 3.16", "unit": "nM"}, {"measurement": "IC50", "setting": "[4]; [9]", "value": "< 100", "unit": "nM"}, {"measurement": "IC50", "setting": "[4]; [10]", "value": "< 100", "unit": "nM"}, {"measurement": "IC50", "setting": "[5]; [11]", "value": "< 100", "unit": "nM"}, {"measurement": "IC50", "setting": "[5]; [12]", "value": "< 100", "unit": "nM"}]}, {"smiles": "CC(C)c1nc(-c2cccc(NS(=O)(=O)c3cc(F)ccc3F)c2F)c(-c2ccnc(NCCCNC(=O)CO)n2)s1", "note": "[Example 196]", "values": [{"measurement": "IC50", "setting": "[3]; [7]", "value": "< 100", "unit": "nM"}, {"measurement": "IC50", "setting": "[3]; [8]", "value": "≤ 3.16", "unit": "nM"}, {"measurement": "IC50", "setting": "[4]; [9]", "value": "< 100", "unit": "nM"}, {"measurement": "IC50", "setting": "[4]; [10]", "value": "< 100", "unit": "nM"}, {"measurement": "IC50", "setting": "[5]; [11]", "value": "< 100", "unit": "nM"}, {"measurement": "IC50", "setting": "[5]; [12]", "value": "< 100", "unit": "nM"}]}]}
